Reference: ChEMBL document CHEMBL1154593, “Insights into the inhibition of xanthine oxidase by curcumin” (Bioorg Med Chem Lett, 2009)

Target: Xanthine dehydrogenase/oxidase (Homo sapiens, UniProt P47989)
Test: Inhibition of xanthine oxidase

Sequence of Xanthine dehydrogenase/oxidase (P47989 whole entry): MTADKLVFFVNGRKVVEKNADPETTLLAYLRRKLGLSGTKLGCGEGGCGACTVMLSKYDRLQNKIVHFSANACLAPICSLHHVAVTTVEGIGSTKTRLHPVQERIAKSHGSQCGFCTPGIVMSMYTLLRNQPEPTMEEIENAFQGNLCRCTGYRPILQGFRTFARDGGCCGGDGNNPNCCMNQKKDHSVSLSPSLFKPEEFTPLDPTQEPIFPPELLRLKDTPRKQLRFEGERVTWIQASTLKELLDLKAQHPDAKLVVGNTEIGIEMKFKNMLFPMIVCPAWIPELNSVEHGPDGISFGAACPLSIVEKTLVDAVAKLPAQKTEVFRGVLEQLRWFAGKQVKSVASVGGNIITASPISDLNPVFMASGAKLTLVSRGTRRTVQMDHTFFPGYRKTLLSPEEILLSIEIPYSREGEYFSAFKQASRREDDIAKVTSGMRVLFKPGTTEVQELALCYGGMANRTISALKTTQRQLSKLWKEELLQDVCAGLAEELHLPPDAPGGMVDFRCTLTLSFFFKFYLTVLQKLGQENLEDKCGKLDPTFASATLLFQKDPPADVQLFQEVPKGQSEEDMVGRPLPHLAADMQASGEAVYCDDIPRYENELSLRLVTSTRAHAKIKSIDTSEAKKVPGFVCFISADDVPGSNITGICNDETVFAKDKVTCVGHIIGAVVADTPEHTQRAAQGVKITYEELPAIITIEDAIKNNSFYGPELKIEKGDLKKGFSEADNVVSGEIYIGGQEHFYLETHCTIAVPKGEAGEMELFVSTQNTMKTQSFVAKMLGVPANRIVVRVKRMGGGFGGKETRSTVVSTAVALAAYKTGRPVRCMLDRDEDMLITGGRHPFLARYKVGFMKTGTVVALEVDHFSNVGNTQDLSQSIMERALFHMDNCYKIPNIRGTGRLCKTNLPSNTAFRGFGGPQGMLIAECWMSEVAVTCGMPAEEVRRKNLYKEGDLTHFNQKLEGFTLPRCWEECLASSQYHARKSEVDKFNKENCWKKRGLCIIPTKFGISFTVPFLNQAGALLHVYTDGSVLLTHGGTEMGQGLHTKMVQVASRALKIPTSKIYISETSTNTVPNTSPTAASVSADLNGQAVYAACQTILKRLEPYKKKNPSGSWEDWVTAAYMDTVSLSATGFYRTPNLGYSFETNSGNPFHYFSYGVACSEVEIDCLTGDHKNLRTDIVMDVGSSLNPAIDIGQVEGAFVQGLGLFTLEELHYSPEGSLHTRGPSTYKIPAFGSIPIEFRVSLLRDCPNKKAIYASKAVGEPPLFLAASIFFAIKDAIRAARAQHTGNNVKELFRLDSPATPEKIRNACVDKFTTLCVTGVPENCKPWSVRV

COc1cc(/C=C/C=O)ccc1O [CONIFERYL ALDEHYDE]
Ki: 93.9 µM
